These are literature values, as cited in US20220023238A1, “Process of Manufacturing a Stable, Ready to Use Infusion Bag for an Oxidation Sensitive Formulation” (InnoPharma, Inc., priority 2016, published 2022).

For series [1] the following is noted: intravenous, therapeutic dosing up to 4,000 mg daily.
For series [2] the following is noted: six adult volunteers, intravenous vs oral.

For the molecule `CC(=O)Nc1ccc(O)cc1` [acetaminophen, N-(4-hydroxy-phenyl)acetamide], the hepatotoxicity entry in series [1] is on record as “rarely associated with hepatotoxicity”. In addition, in series [2], the “mean intravenous Cmax compared to oral route” value is on record as “two”.
